target: Human immunodeficiency virus type 1 integrase (Human immunodeficiency virus 1, UniProt Q7ZJM1); assay: Inhibition of HIV1 integrase
Sequence (Q7ZJM1 whole entry): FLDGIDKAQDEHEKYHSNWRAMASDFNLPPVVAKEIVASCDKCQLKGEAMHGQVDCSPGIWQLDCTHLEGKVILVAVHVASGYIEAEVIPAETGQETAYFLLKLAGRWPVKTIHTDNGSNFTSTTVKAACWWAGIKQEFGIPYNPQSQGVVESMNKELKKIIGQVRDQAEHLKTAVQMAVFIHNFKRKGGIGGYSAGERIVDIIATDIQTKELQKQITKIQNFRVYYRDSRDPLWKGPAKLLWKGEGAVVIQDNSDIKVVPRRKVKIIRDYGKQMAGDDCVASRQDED

| IC50 | Structure (SMILES) |
| --- | --- |
| > 268 µM | N#CC(=Cc1ccc(-c2ccc(F)cc2C(=O)O)o1)c1nc2ccccc2[nH]1 |
| > 271 µM | COc1c(C)cc(-c2ccc(C=C(C#N)c3nc4ccccc4[nH]3)o2)cc1C |
| > 244 µM | NC(=O)/C(=C\c1ccc(-c2ccc(Cl)cc2[N+](=O)[O-])o1)c1nc2ccccc2[nH]1 |
| 36.2 µM | Cc1ccc2[nH]c(C(C#N)=Cc3ccc(-c4ccc(Cl)cc4C(=O)O)o3)nc2c1 |
| > 235 µM | CC(C)(C)OC(=O)Nc1ccc(-c2ccc(C=C(C#N)c3nc4ccccc4[nH]3)o2)cc1 |
| > 302 µM | O=[N+]([O-])c1ccccc1-c1ccc(/C=C/c2nc3ccccc3[nH]2)o1 |
| > 291 µM | COc1c(C)cc(-c2ccc(/C=C/c3nc4ccccc4[nH]3)o2)cc1C |
| 31.3 µM | N#CC(=Cc1ccc(-c2cc(C(F)(F)F)ccc2Cl)o1)c1nc2ccccc2[nH]1 |
| > 281 µM | N#CC(=Cc1ccc(-c2cccc([N+](=O)[O-])c2)o1)c1nc2ccccc2[nH]1 |
| 70.3 µM | N#CC(=Cc1ccc(-c2ccc(C(=O)O)c(O)c2)o1)c1nc2ccccc2[nH]1 |
| > 257 µM | FC(F)(F)c1cccc(Cl)c1-c1ccc(/C=C/c2nc3ccccc3[nH]2)o1 |
| > 241 µM | N#C/C(=C\c1ccc(-c2c(Cl)cccc2C(F)(F)F)o1)c1nc2ccccc2o1 |
| > 281 µM | N#CC(=Cc1ccc(-c2ccc(C(=O)O)cc2)o1)c1nc2ccccc2[nH]1 |

Further lines, the compound ahead of its results:

| Structure (SMILES) | IC50 |
| --- | --- |
| N#CC(=Cc1ccc(-c2cccc(C(=O)O)c2)o1)c1nc2ccccc2[nH]1 | 164 µM |
| N#CC(=Cc1ccc(-c2cc([N+](=O)[O-])ccc2Cl)o1)c1nc2ccccc2[nH]1 | 58.7 µM |
| O=[N+]([O-])c1cc(Cl)ccc1-c1ccc(/C=C/c2nc3ccccc3[nH]2)o1 | > 273 µM |
| Cc1c(-c2ccc(/C=C/c3nc4ccccc4[nH]3)o2)cccc1[N+](=O)[O-] | > 290 µM |
| N#CC(=Cc1ccc(-c2ccc(Cl)cc2)o1)c1nc2ccccc2[nH]1 | > 289 µM |
| O=[N+]([O-])c1cccc(-c2ccc(/C=C/c3nc4ccccc4[nH]3)o2)c1 | 12 µM |
| C/C(=C\c1ccc(-c2ccc(Cl)cc2[N+](=O)[O-])o1)c1nc2ccccc2[nH]1 | > 263 µM |
| Cc1ccc(C(=O)O)cc1-c1ccc(C=C(C#N)c2nc3ccccc3[nH]2)o1 | 39.8 µM |
| N#C/C(=C\c1ccc(-c2ccc(Cl)cc2[N+](=O)[O-])o1)c1nc2ccccc2s1 | > 245 µM |
| N#C/C(=C\c1ccc(-c2cccc([N+](=O)[O-])c2)o1)c1nc2ccccc2s1 | > 268 µM |
| N#C/C(=C\c1ccc(-c2cccc([N+](=O)[O-])c2)o1)c1nc2ccccc2o1 | > 280 µM |
| N#CC(=Cc1ccc(-c2ccc(O)c(C(=O)O)c2)o1)c1nc2ccccc2[nH]1 | 68.7 µM |
| COc1ccc(-c2ccc(C=C(C#N)c3nc4ccccc4[nH]3)o2)cn1 | > 292 µM |
| N#C/C(=C\c1ccc(-c2c(Cl)cccc2C(F)(F)F)o1)c1nc2ccccc2s1 | > 232 µM |
| Cc1c(-c2ccc(C=C(C#N)c3nc4ccccc4[nH]3)o2)cccc1[N+](=O)[O-] | 85.8 µM |
| N#CC(=Cc1ccc(-c2ccccc2[N+](=O)[O-])o1)c1nc2ccccc2[nH]1 | > 281 µM |
| N#CC(=Cc1ccc(-c2ccc(Cl)c(C(=O)O)c2)o1)c1nc2ccccc2[nH]1 | 90.4 µM |

From ChEMBL document CHEMBL1149702, “Toward novel HIV-1 integrase binding inhibitors: molecular modeling, synthesis, and biological studies” (Bioorg Med Chem Lett, 2007)
